From patent US10669258B2, “3-sulfonyl-5-aminopyridine-2,4-diol APJ agonists” (BRISTOL-MYERS SQUIBB COMPANY, priority 2016, dated 2020)
pEC50: −log10 of the molar value. Like-named read-outs stand apart in the source and are kept apart here.

Target: T1, human APJ receptor (Homo sapiens, UniProt P35414)
T1 construct: expressed in transfected cells; host or cells: HEK293
T1 sequence (P35414 1-380): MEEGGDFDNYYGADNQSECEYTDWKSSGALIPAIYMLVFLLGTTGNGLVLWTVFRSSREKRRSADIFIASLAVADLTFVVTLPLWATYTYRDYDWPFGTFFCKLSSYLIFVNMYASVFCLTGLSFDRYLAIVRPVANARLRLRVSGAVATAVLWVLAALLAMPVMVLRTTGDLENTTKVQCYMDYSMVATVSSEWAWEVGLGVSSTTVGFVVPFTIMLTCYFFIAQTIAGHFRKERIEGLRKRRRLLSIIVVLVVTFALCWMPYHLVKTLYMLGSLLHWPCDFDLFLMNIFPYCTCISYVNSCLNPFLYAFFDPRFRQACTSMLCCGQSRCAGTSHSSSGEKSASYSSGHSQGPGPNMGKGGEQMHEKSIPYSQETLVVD
Assay: Intracellular cAMP accumulation assay (APJ hcAMP, HTRF)
Format: cell-based
Settings: HEK293 cells stably expressing human APJ receptor, inhibition of forskolin-mediated cAMP production
Procedure: Intracellular cAMP Accumulation Assay
HEK293 cells stably expressing human APJ receptor were used to assess the activity of compounds. Cultured cells were detached and resuspended in the cAMP Homogeneous Time-Resolved Fluorescence (HTRF) assay buffer (Cisbio cat; #62AM4PEJ). The assay was performed in 384-well assay plates (Perkin-Elmer; cat #6008289) according to assay protocol provided by the manufacturer. Serial dilutions of a compound together with assay buffer containing […] IBMX and 2 μM forskolin were added to each well containing 5,000 cells and incubated for 30 minutes at room temperature. Subsequently, cAMP D2 reagent was added in the lysis buffer followed by the EuK antibody (Cisbio; cat #62AM4PEJ) and incubated for 60 min. The fluorescence emission ratio was measured using fluorometer. The intracellular cAMP concentrations (compound-stimulated inhibition of forskolin-mediated cAMP production) were calculated by extrapolation from a standard curve using known cAMP concentrations. The EC50 values were obtained by fitting the data to a sigmoidal concentration-response curve with variable slope. The maximal achievable inhibition of forskolin-induced cAMP levels (Ymax) for each compound was expressed as relative percentage of inhibition attained using pyroglutamated apelin-13 ((Pyr1)apelin-13) peptide, which was set to 100%.
The examples disclosed below were tested in the APJ in vitro assays described above and were found having human APJ cyclic AMP (hcAMP) activity. The EC50 value of each compound is presented at the end of the example description.
The biological activity of the exemplified compounds of this invention determined by the assay described above is shown at the end of each example.

[1] = Table 1, read-out: hAPJ cAMP EC50 Potency range

Compound | pEC50 [1] | other results
CCCCc1nc(O)c(S(=O)(=O)c2ccc(-c3cccnc3C)cc2)c(O)c1N(C)c1ccccc1C [Example 194, 6-butyl-5-(methyl(o-tolyl)amino)-3-((4-(2-methylpyridin-3-yl)phenyl)sulfonyl)pyri-dine-2,4-diol] | 7.00 to 8.00 | 
CCCCc1nc(O)c(S(=O)(=O)c2ccccc2)c(O)c1N(CC)c1ccccc1 [Example 084, 6-butyl-5-(ethyl(phenyl)amino)-3-(phenylsulfonyl)pyridine-2,4-diol] | 7.00 to 8.00 | 
CC(C)N(c1ccccc1)c1c(-c2ccn(C)n2)nc(O)c(S(=O)(=O)c2ccc(-c3ccccc3C(=O)N(C)C)cc2)c1O [Example 159, 4′-((2,4-dihydroxy-5-(isopropyl(phen-yl)amino)-6-(1-methyl-1H-pyrazol-3-yl)pyridin-3-yl)sulfonyl)-N,N-dimethyl-[1,1′-biphenyl]-2-carboxamide] | 8.00 to 11.00 | 
CCCCc1nc(O)c(S(=O)(=O)c2ccc(-c3ccnc(OC)c3)cc2)c(O)c1N(CC)c1ccccc1 [Example 081, 6-butyl-5-(ethyl(phenyl)amino)-3-((4-(2-methoxypyridin-4-yl)phenyl)sulfonyl)pyridine-2,4-diol] | 8.00 to 11.00 | 
CCCCc1nc(O)c(S(=O)(=O)c2ccc(-c3ccccc3C(N)=O)cc2)c(O)c1N(C)c1ccccc1F [Example 174, 4′-((6-butyl-5-((2-fluorophenyl)(methyl)a-mino)-2,4-dihydroxypyridin-3-yl)sulfonyl)-[1,1′-biphenyl]-2-carboxamide] | 8.00 to 11.00 | 
CC(C)N(c1ccccc1)c1c(-c2ccn(C)n2)nc(O)c(C(=O)N2CCC(c3ccc(F)cc3F)C2)c1O (stereo not shown) [Example 209, (3-(2,4-difluorophenyl)pyrrolidin-1-yl)(2,4-dihydroxy-5-(isopropyl(phenyl)amino)-6-(1-methyl-1H-pyrazol-3-yl)pyridin-3-yl)methanone] |  | pEC50 (Table 2, read-out: hAPJ cAMP EC50 Potency range): 8.00 to 11.00
CCN(c1ccccc1)c1c(-c2ccn(C)n2)nc(O)c(S(=O)(=O)c2ccc(-c3ccccc3C(=O)NC)cc2)c1O [Example 056, 4′-((5-(ethyl(phenyl)amino)-2,4-dihydroxy-6-(1-methyl-1H-pyrazol-3-yl)pyridin-3-yl)sulfonyl)-N-methyl-[1,1′-biphenyl]-2-carboxamide] | 8.00 to 11.00 | 
CCCCc1nc(O)c(S(=O)(=O)c2ccc(-c3ccc(F)nc3C)cc2)c(O)c1N1c2ccccc2CCC1C (stereo not shown) [Example 048, 6-butyl-3-((4-(6-fluoro-2-methylpyridin-3-yl)phenyl)sulfonyl)-5-(2-methyl-3,4-dihydroquinolin-1(2H)-yl)pyridine-2,4-diol] | 8.00 to 11.00 | 
CCCCc1nc(O)c(S(=O)(=O)c2ccc(-c3ccc(F)nc3C)cc2)c(O)c1N(C)c1ccccc1C [Example 198, 6-butyl-3-((4-(6-fluoro-2-methylpyridin-3-yl)phenyl)sulfonyl)-5-(methyl(o-tolyl)amino)pyridine-2,4-diol] | 7.00 to 8.00 | 
CCN(c1ccccc1)c1c(-c2cccc(C)c2)nc(O)c(C(=O)N2CCC(c3ncc(F)cc3F)C2)c1O (stereo not shown) [Example 132, (3-(3,5-difluoropyridin-2-yl)pyrrolidin-1-yl)(5-(ethyl(phenyl)amino)-2,4-dihydroxy-6-(m-tolyl)pyridin-3-yl)methanone] |  | pEC50 (read-out: hAPJ cAMP EC50 Potency range, Table 1): 8.00 to 11.00
CCCCc1nc(O)c(C(=O)N2CC[C@H](c3ccccc3)C2)c(O)c1N1CCc2ccccc21 [Example 009, (R)-(6-butyl-2,4-dihydroxy-5-(indolin-1-yl)pyridin-3-yl)(3-phenylpyrrolidin-1-yl)methanone] |  | pEC50 (hAPJ cAMP EC50 Potency range, Table 1): 7.00 to 8.00
CCCCc1nc(O)c(S(=O)(=O)c2ccc(-c3ccccc3C(=O)N(C)C)cc2)c(O)c1N(CC)c1cccc(C#N)c1 [Example 186, 4′-((6-butyl-5-((3-cyanophenyl)(ethyl)a-mino)-2,4-dihydroxypyridin-3-yl)sulfonyl)-N,N-dimethyl-[1,1′-biphenyl]-2-carboxamide] | 8.00 to 11.00 | 
CCCCc1nc(O)c(S(=O)(=O)c2ccc(-c3ccncc3C)cc2)c(O)c1N(CC)c1ccccc1 [Example 078, 6-butyl-5-(ethyl(phenyl)amino)-3-((4-(3-methylpyridin-4-yl)phenyl)sulfonyl)pyridine-2,4-diol] | 8.00 to 11.00 | 
